In US20230226043A1 (priority 2020, published 2023):

Assays:
SARS-CoV-2 [1] = conditions: 10 μM; cited from earlier work
senescent BV2 cells = experiment: Viability of senescent BV2 cells (pretreated with TMZ), SRB assay; format: cell-based; conditions: for cell viability of senescent BV2 cells, single agent: single agent below the high concentrations (2 μM masitinib, 20 μM isoquercetin)
Protocol: (§1) BV2 cells are retroviral-immortalized microglia-like cells, which are used as a model for cellular senescence. BV2 cells were cultured in Dulbecco's modified Eagle's medium supplemented with 10% heat-inactivated fetal bovine serum (hiFBS) and plated in 6-well multiwell plates for treatment and flow cytometry analysis.
BV2 cells were treated with temozolomide (TMZ), an alkylating agent inducing DNA damage, in order to induce senescence of the cells. For senescence induction studies, cells were plated and treated twice with increasing doses (10-150 μM) of TMZ during 5 hours every 24 hours. After exposure of BV2 cells to two successive treatments with TMZ, their proliferation was reduced and the cells developed a characteristic senescent phenotype with enlarged size and flat-granulated shape. The senescent phenotype of BV2 cells after TMZ-induced genotoxicity was further confirmed by measuring the number of cells displaying β-gal activity, a well-recognized marker of cellular senescence. After the second TMZ-treatment, flow cytometry analysis was thus carried out using a 5-Dodecanoylaminofluorescein Di-β-D-Galactopyranoside (C12FDG) kit to measure β-galactosidase activity by the alkalinization of lysosomes as described by the manufacturer's instructions (Thermo Fisher Scientific, #D2893). TMZ induced a dose-dependent increase in the number β-gal+ cells. Up to 60% of β-gal+BV2 cells, i.e., senescent cells, were obtained at a TMZ concentration of 100 μM (data not shown).
(§2) For cellular viability analysis of non-senescent cells (BV2 cells) and senescent cells (BV2 cells pretreated with TMZ), cells were plated in 96-well multiwell plates during 72 hours. […] After 48 hours of treatment, cell viability was analyzed by sulforhodamine B (SRB) assay. The optical density (OD) of each well was read in a 96-well plate reader at 540 nm. The OD of the SRB solution is directly proportional to the cell number.

non-senescent BV2 cells = experiment: Viability of non-senescent BV2 cells, sulforhodamine B (SRB) assay; format: cell-based; conditions: 48 h exposure, masitinib 0.1-2 μM and/or isoquercetin 1-20 μM
Protocol: as §1, §2

measles virus (MeV) = experiment: Measles virus inhibition assay in Vero cells, luciferase; format: cell-based; conditions: 10 μM, n=3, p>0.07
Protocol: Vero cells were infected with a luciferase-expressing measles virus at an MOI of 0.01 for 90 minutes. The inoculum was removed and added fresh medium containing masitinib or DMSO to the cells for further culture. Three days later, firefly luciferase activity was measured by adding 0.5 mM of D-Luciferin to each well and was quantified with an Infinite M200 Pro multimode microplate reader.

[2] = system: lymphocytic choriomeningitis virus (LCMV); format: cell-based; conditions: 10 μM, n=2, p>0.07
OC43 [3] = experiment: Dose-response analysis of OC43 infection in A549-mRuby cells; format: cell-based, human beta coronavirus OC43 (HCoV-OC43); conditions: Betacoronavirus 1, OC43, A549, 48 h, read-out: EC50 against OC43 infection
Protocol: Dose-response analysis of OC43 infection was done similarly to the drug screening, except cells were seeded at a concentration of 5,000 cells per well and the media contained 2% BCS instead of 10% BCS. OC43 staining was performed 2 days after infection and analyzed similarly to what was described for the drug screening. A sigmoid fit was used to extract EC50 values using Matlab.

SARS-CoV-2 [4] = experiment: SARS-CoV-2 intranasal challenge of K18-hACE2 mice; conditions: bid, ip, vs PBS; for clinical score: 1-6 days post infection
OC43 [5] = experiment: Drug repurposing screen, OC43 nucleoprotein staining in A549-mRuby cells; format: cell-based, human beta coronavirus OC43 (HCoV-OC43); conditions: for % staining of OC43: normalized to no-drug controls in the same plate
Protocol: (§3) Cells were seeded in a final volume of […] with DMEM+10% BCS. […] All the following steps were performed at room temperature. […] The screen was performed twice.

A549-mRuby cells = experiment: Cell growth in the drug screen (cell numbers day 4 / day 0); format: cell-based, human
Protocol: as §3

[6] = system: Chikungunya virus (CHIKV); experiment: Chikungunya virus infection; format: cell-based; conditions: 10 μM, n=3, p>0.07
influenza A virus (IAV) = experiment: Influenza A infection of MDCK-SIAT1-TMPRSS2 cells; format: cell-based, Influenza A/Puerto Rico/8/1934 (PR8); conditions: 10 μM, n=3, p>0.07
Protocol: MDCK-SIAT1-TMPRSS2 cells were infected with Influenza A/Puerto Rico/8/1934 (PR8) at an MOI of 0.01 TCID50/cell. Following a 1 hour adsorption, virus was removed and the cells were washed. […] Supernatants were harvested and clarified at 20 hours post infection. The supernatants were titrated using TCID on MDCK-SIAT1-TMPRSS2 cells.

SARS-CoV-2 [7] = experiment: SARS-CoV-2 progeny production, plaque titers on Vero E6 cells; format: cell-based; conditions: 10 μM; for decrease of SARS-CoV-2 progeny production: 2 h pre-treatment, MOI 0.5, supernatant 2 days
Protocol: For SARS-CoV-2 plaque titers, cell supernatants from the infection described above were serially diluted (10-fold steps were used) and used to infect Vero E6 cells for 1 hour. Inoculum was removed and 1.25% methylcellulose DMEM solution was added to the cells and incubated for 3 days. Plates were fixed in 1:10 formalin for 1 hour, stained with crystal violet for 1 hour and were counted to determine plaque forming units (PFU)/ml.

OC43 [8] = experiment: OC43 replication in primary human airway epithelial cells; format: cell-based, human beta coronavirus OC43 (HCoV-OC43); conditions: Betacoronavirus 1, OC43, Epithelial cell, read-out: EC50, inhibition of OC43 replication
[9] = system: human rhinovirus 14 (HRV14); experiment: Picornavirus infection of Huh7 cells, plaque titration; format: cell-based; conditions: 10 M [sic] masitinib, MOI 0.01, 24 h
Protocol: (§4) Prior to infection, Huh7 cells were pretreated for two hours. Virus was diluted using serum-free DMEM (SFM) to achieve an MOI of 0.01. Cell supernatants (collected at 24 hours post infection) were dilutions in SFM and used to inoculate Vero cells for 10-15 min at 37 C. Cells were incubated for 2 days at 37 C after overlaying them DMEM containing 2% NBCS and 0.8% agarose. […] The number of plaque forming units (PFU/per milliliter) were then calculated.

[10] = system: human rhinovirus 16 (HRV16); experiment: as above; format: cell-based; conditions: 10 M [sic] masitinib, MOI 0.01, 24 h
Protocol: as §4

coxsackievirus B3 (CVB3) = experiment: as above; format: cell-based; conditions: 10 M [sic] masitinib, MOI 0.01, 24 h
Protocol: as §4

[11] = system: human rhinovirus 2 (HRV2); experiment: as above; format: cell-based; conditions: 10 M [sic] masitinib, MOI 0.01, 24 h
Protocol: as §4

[12] = biological target: picornaviruses 3C protease (Coxsackievirus B3, UniProt P03313); experiment: 3C protease activity assay, luciferase reporter in Huh7 cells; conditions: n=6, p-value=7×10-6
picornaviruses 3C protease, sequence (P03313 1541-1723 limits assumed): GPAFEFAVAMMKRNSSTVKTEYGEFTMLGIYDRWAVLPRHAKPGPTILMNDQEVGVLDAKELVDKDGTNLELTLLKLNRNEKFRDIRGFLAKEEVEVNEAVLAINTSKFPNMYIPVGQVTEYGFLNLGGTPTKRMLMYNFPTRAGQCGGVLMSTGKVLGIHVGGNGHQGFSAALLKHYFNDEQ

[13] = 25 or 50 mg/kg, 4 and 6 days post infection

Structure (SMILES): O=CC(CC1CCNC1=O)NC(=O)C(CC1CCCCC1)NC(=O)c1cc2ccccc2[nH]1 (stereo not shown) [11a]
- inhibition of SARS-CoV-2 progeny production (SARS-CoV-2 [1]): 2 logs

Structure (SMILES): O=CC(CC1CCNC1=O)NC(=O)C(Cc1cccc(F)c1)NC(=O)c1cc2ccccc2[nH]1 (stereo not shown) [11b]
- inhibition of SARS-CoV-2 progeny production (SARS-CoV-2 [1]): 2 logs

Structure (SMILES): O=c1c(O[C@@H]2O[C@H](CO)[C@@H](O)[C@H](O)[C@H]2O)c(-c2ccc(O)c(O)c2)oc2cc(O)cc(O)c12 [isoquercetin, 2-(3,4-dihydroxyphenyl)-5,7-dihydroxy-3-[(2S,3R,4S,5S,6R)-3,4,5-trihydroxy-6-(hydroxymethyl)oxan-2-yl]oxychromen-4-one]
- cytotoxicity at 20 µM (senescent BV2 cells; Mus musculus, BV-2, 20 μM isoquercetin alone, 48 h, TMZ-induced senescent BV2 cells, read-out: reduction in senescent cell viability): ~25%
- cell viability of senescent BV2 cells, single agent (senescent BV2 cells): modest reduction in cell viability
- cell viability of non-senescent proliferating BV2 cells (non-senescent BV2 cells): no significant change in cell viability

Structure (SMILES): Cc1ccc(NC(=O)c2ccc(CN3CCN(C)CC3)cc2)cc1Nc1nc(-c2cccnc2)cs1 [masitinib, 4-(4-methylpiperazin-1-ylmethyl)-N-[4-methyl-3-(4-pyridin-3ylthiazol-2-ylamino)phenyl]benzamide]
- effect on cells infected by measles virus (MeV) (measles virus (MeV)): did not show a significant effect
- effect on cells infected by lymphocytic choriomeningitis virus (LCMV) [2]: did not show a significant effect
- EC50 (OC43 [3]): 2100 nM
- cytotoxicity at 2 µM (senescent BV2 cells; Mus musculus, BV-2, 48 h, read-out: reduction in senescent cell viability): ~25%
- cell viability of senescent BV2 cells, single agent (senescent BV2 cells): modest reduction in cell viability
- cell viability of non-senescent proliferating BV2 cells (non-senescent BV2 cells): no significant change in cell viability
- clinical score (SARS-CoV-2 [4]; 25 mg/kg): significant decrease
- clinical score (SARS-CoV-2 [4]; 50 mg/kg): significant decrease
- SARS-CoV-2 viral load in the lung (SARS-CoV-2 [4]; [13]): significant decrease
- SARS-CoV-2 viral load in the nasal turbinates (SARS-CoV-2 [4]; [13]): significant decrease
- mean % staining of OC43 (OC43 [5]; mean of two screen repeats, normalized to no-drug controls (=100), drug at 10 PM as printed, day 4): 12.2%
- % staining of OC43 (OC43 [5]; screen repeat #1): 14.4%
- % staining of OC43 (OC43 [5]; screen repeat #2): 10.1%
- number of cells at day 4 divided by number of cells at day 0 (A549-mRuby cells; screen repeat #1): 4.3
- number of cells at day 4 divided by number of cells at day 0 (A549-mRuby cells; screen repeat #2): 4.7
- effect on cells infected by Chikungunya virus (CHIKV) [6]: did not show a significant effect
- effect on cells infected by influenza A virus (IAV) (influenza A virus (IAV)): did not show a significant effect
- decrease of SARS-CoV-2 progeny production (SARS-CoV-2 [7]): over 5 logs
- decrease of SARS-CoV-2 progeny production (SARS-CoV-2 [7]; listed as Masitinib): > 5 logs
- reduction in viral titers (SARS-CoV-2 progeny) (SARS-CoV-2 [7]; n=3, p<0.001): statistically significant
- EC50 (OC43 [8]): 580 nM
- replication of human rhinovirus 14 (HRV14) [9]: effective in blocking the replication
- replication of human rhinovirus 16 (HRV16) [10]: effective in blocking the replication
- replication of coxsackievirus B3 (CVB3) (coxsackievirus B3 (CVB3)): effective in blocking the replication
- replication of human rhinovirus 2 (HRV2) [11]: effective in blocking the replication
- activity of the 3C protease in cells [12]: significantly inhibited
